≈ marks a conversion by molar mass, not a printed value. Read-outs that look alike come from different tables or passages of the source.
How the values were obtained:
[1] = test system: Saccharomyces cerevisiae; test: MIC/MFC broth microdilution (CLSI); assay type: cell-based; settings: Saccharomyces cerevisiae S288c
Method: (§1) Antifungal susceptibility was determined by broth microdilution according to the CLSI guidelines described in M27-Ed4 ([16]). […] MFC was determined by back-plating drug-treated cultures from MIC broths onto SDA plates. The MFC was defined as the lowest concentration from which no colonies could be cultured.

[2] = test system: Candida albicans; test: MIC/MFC broth microdilution (CLSI); assay type: cell-based; settings: Candida albicans SC5314
Method: as §1

[3] = test system: Cryptococcus deuterogattii; test: checkerboard drug interaction (FICI, MICc);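 for all read-outs here: simplified diagonal checkerboard screen pairing antifungal drugs with FPPS inhibitors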; assay type: cell-based; settings: C. deuterogattii; for INH FD (MIC-MICc fold decrease): fold decrease of inhibitor MIC
Method: (§2) Drug interactions between antifungals and FPPS inhibitors were investigated using a simplified checkerboard diagonal screening method ([45]). […] FICIs were determined according to the Loewe additivity model ([17]).

[4] = test system: Cryptococcus neoformans; test: checkerboard drug interaction (FICI, MICc);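 for all read-outs here: antifungal plus FPPS inhibitor pairs tested against Cryptococcus neoformans by simplified diagonal checkerboard screening, FICI computed under the Loewe additivity model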; assay type: cell-based; settings: C. neoformans; for INH FD (MIC-MICc fold decrease): fold decrease of inhibitor MIC
Method: as §2

[5] = test system: Saccharomyces cerevisiae; test: checkerboard drug interaction (FICI, MICc); assay type: cell-based; set-up: INH MICc / INH MICc (ITR:INH) / INH MICc (KET:INH) / INH MICc (FLC:INH): unit not given beside the values;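 note: simplified diagonal checkerboard screen pairing antifungals with FPPS inhibitors, FICI calculated under the Loewe additivity model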
[6] = test system: Candida glabrata; test: checkerboard drug interaction (FICI, MICc);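 for all read-outs here: simplified diagonal checkerboard screen pairing antifungals with FPPS inhibitors, FICI calculated under the Loewe additivity model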; assay type: cell-based; settings: C. glabrata; for INH FD (MIC-MICc fold decrease): fold decrease of inhibitor MIC
Method: as §2

[7] = test system: Candida albicans; test: checkerboard drug interaction (FICI, MICc);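 for all read-outs here: antifungal plus FPPS inhibitor combinations on Candida albicans tested by a simplified diagonal checkerboard screen, with FICI calculated under the Loewe additivity model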; assay type: cell-based; settings: C. albicans; for INH FD (MIC-MICc fold decrease): fold decrease of inhibitor MIC
Method: as §2

[8] = test system: Aspergillus flavus; test: checkerboard drug interaction (FICI, MICc);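 note: simplified diagonal checkerboard screen pairing azole antifungals with FPPS inhibitors, FICI calculated under the Loewe additivity model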; assay type: cell-based; set-up: INH MICc (KET:INH) / INH MICc (FLC:INH): unit not given beside the values; settings: A. flavus
[9] = test system: Aspergillus fumigatus; test: checkerboard drug interaction (FICI, MICc); assay type: cell-based;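 note: simplified diagonal checkerboard screen pairing antifungals with FPPS inhibitors against Aspergillus fumigatus, with FICI calculated under the Loewe additivity model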
Method: as §2

[10] = test system: Trichophyton rubrum; test: checkerboard drug interaction (FICI, MICc);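 note: simplified diagonal checkerboard screen pairing azole antifungals with FPPS inhibitors, FICI calculated under the Loewe additivity model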; assay type: cell-based; settings: T. rubrum
Method: as §2

[11] = test system: HEK-293T cells; test: MTT reduction cytotoxicity assay; assay type: cell-based; settings: Homo sapiens, HEK-293T, 72 h, MTT, 72 h
[12] = test system: eight fungal species; test: MIC/MFC summary across the eight fungal species of Table 1; assay type: cell-based
Method: The antifungal activity of these compounds was evaluated according to CLSI guidelines ([16]).

[13] = test system: eight fungal species; test: checkerboard interaction with azoles, summary across the eight species; assay type: cell-based
Source text: Synergy between lipophilic FPPS inhibitors and azole antifungals was investigated by determining the fractional inhibitory concentration index (FICI) (Fig. 2; Table S1 Fig. S1) ([17]). […]. Derivatives PLA9 and 11, and PDA9, 11, and 12 antagonized azoles in C. albicans, C. neoformans, and C. deuterogattii, yet were largely synergistic in C. glabrata and S. cerevisiae. […].

[14] = test system: Cryptococcus deuterogattii; test: MIC/MFC broth microdilution (CLSI); settings: Cryptococcus deuterogattii;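 note: broth microdilution per CLSI M27-Ed4. MFC is the lowest concentration yielding no colonies when MIC broths are subcultured onto SDA plates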
Method: as §1

[15] = test system: Cryptococcus neoformans; test: MIC/MFC broth microdilution (CLSI); settings: Cryptococcus neoformans;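 note: susceptibility testing followed the CLSI M27-Ed4 broth microdilution document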
Method: as §1

[16] = test system: Candida glabrata; test: MIC/MFC broth microdilution (CLSI); settings: Nakaseomyces glabratus, CBS138;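 note: broth microdilution following CLSI M27-Ed4, MFC taken as the lowest drug level yielding no growth once MIC wells were subcultured on SDA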
Method: as §1

[17] = test system: Aspergillus flavus; test: MIC/MFC broth microdilution (CLSI); settings: ATCC204304
Method: as §1

[18] = test system: Aspergillus fumigatus; test: MIC/MFC broth microdilution (CLSI); settings: ATCC204305
Method: as §1

[19] = test system: Trichophyton rubrum; test: MIC/MFC broth microdilution (CLSI); settings: Trichophyton rubrum
Method: as §1

[20] = FLC:INH combination, MIC of the inhibitor in combination with FLC
[21] = FLC:INH combination, fold decrease of FLC MIC
[22] = ITR:INH combination, MIC of the inhibitor in combination with ITR
[23] = ITR:INH combination, fold decrease of ITR MIC
[24] = KET:INH combination, MIC of the inhibitor in combination with KET
[25] = KET:INH combination, fold decrease of KET MIC
[26] = Fractional Inhibitory Concentration Index, fluconazole + inhibitor
[27] = Fractional Inhibitory Concentration Index, itraconazole + inhibitor
[28] = Fractional Inhibitory Concentration Index, ketoconazole + inhibitor
[29] = MIC of the inhibitor in combination with fluconazole
[30] = MIC of the inhibitor in combination with itraconazole
[31] = MIC of the inhibitor in combination with ketoconazole
[32] = MIC-MICc fold decrease of fluconazole, negative = increase
[33] = MIC-MICc fold decrease of itraconazole, negative = increase
[34] = MIC-MICc fold decrease of ketoconazole, negative = increase
[35] = MIC-MICc fold decrease of the inhibitor, with fluconazole
[36] = MIC-MICc fold decrease of the inhibitor, with itraconazole
[37] = MIC-MICc fold decrease of the inhibitor, with ketoconazole

## CCCCCCCCCCCN1CCC[C@H]1C(=O)N[C@@H](CC(=O)OC)C(=O)OC [dmPLA11]
[1]
  MFC: 8 µg/mL (≈ 19.4 µM)
  MIC: 8 µg/mL (≈ 19.4 µM)
[2]
  MFC: 32 µg/mL (≈ 77.6 µM)
  MIC: 32 µg/mL (≈ 77.6 µM)
[3]; FLC:INH combination
  FICI: 1.5
  INH FD (MIC-MICc fold decrease): 1
[3]; [20]
  INH MICc: 32
[3]; [21]
  FLC FD (MIC-MICc fold decrease): 2
[3]; ITR:INH combination
  FICI: 2
  INH FD (MIC-MICc fold decrease): 1
[3]; [22]
  INH MICc: 32
[3]; [23]
  ITR FD (MIC-MICc fold decrease): 1
[3]; KET:INH combination
  FICI: 1.13
  INH FD (MIC-MICc fold decrease): 1
[3]; [24]
  INH MICc: 32
[3]; [25]
  KET FD (MIC-MICc fold decrease): 8
[4]; FLC:INH combination
  FICI: 1.5
  INH FD (MIC-MICc fold decrease): 2
[4]; [20]
  INH MICc: 32
[4]; [21]
  FLC FD (MIC-MICc fold decrease): 1
[4]; ITR:INH combination
  FICI: 1.5
  INH FD (MIC-MICc fold decrease): 2
[4]; [22]
  INH MICc: 32
[4]; [23]
  ITR FD (MIC-MICc fold decrease): 1
[4]; KET:INH combination
  FICI: 1.5
  INH FD (MIC-MICc fold decrease): 2
[4]; [24]
  INH MICc: 32
[4]; [25]
  KET FD (MIC-MICc fold decrease): 1
[5]; [26]
  FICI (FLC:INH): 1
[5]; [27]
  FICI (ITR:INH): 2.25
[5]; [28]
  FICI (KET:INH): 1
[5]; [29]
  INH MICc (FLC:INH): 4
[5]; [30]
  INH MICc (ITR:INH): 2
[5]; [31]
  INH MICc (KET:INH): 4
[5]; [32]
  FLC FD (FLC:INH): 2
[5]; [33]
  ITR FD (ITR:INH): -2
[5]; [34]
  KET FD (KET:INH): 2
[5]; [35]
  INH FD (FLC:INH): 2
[5]; [36]
  INH FD (ITR:INH): 4
[5]; [37]
  INH FD (KET:INH): 2
[6]; FLC:INH combination
  FICI: 3
  INH FD (MIC-MICc fold decrease): 1
[6]; [20]
  INH MICc: 16
[6]; [21]
  FLC FD (MIC-MICc fold decrease): 1
[6]; ITR:INH combination
  FICI: 1
  INH FD (MIC-MICc fold decrease): 4
[6]; [22]
  INH MICc: 4
[6]; [23]
  ITR FD (MIC-MICc fold decrease): 2
[6]; KET:INH combination
  FICI: 1
  INH FD (MIC-MICc fold decrease): 4
[6]; [24]
  INH MICc: 4
[6]; [25]
  KET FD (MIC-MICc fold decrease): 2
[7]; FLC:INH combination
  FICI: 1.25
  INH FD (MIC-MICc fold decrease): 4
[7]; [20]
  INH MICc: 8
[7]; [21]
  FLC FD (MIC-MICc fold decrease): 1
[7]; ITR:INH combination
  FICI: 1.25
  INH FD (MIC-MICc fold decrease): 4
[7]; [22]
  INH MICc: 8
[7]; [23]
  ITR FD (MIC-MICc fold decrease): 1
[7]; KET:INH combination
  FICI: 1.25
  INH FD (MIC-MICc fold decrease): 4
[7]; [24]
  INH MICc: 8
[7]; [25]
  KET FD (MIC-MICc fold decrease): 1
[8]; [26]
  FICI (FLC:INH): 2
[8]; [27]
  FICI (ITR:INH): 1.25
[8]; [28]
  FICI (KET:INH): 0.75
[8]; [29]
  INH MICc (FLC:INH): 256
[8]; [30]
  INH MICc (ITR:INH): 64
[8]; [31]
  INH MICc (KET:INH): 64
[8]; [32]
  FLC FD (FLC:INH): 1
[8]; [33]
  ITR FD (ITR:INH): 1
[8]; [34]
  KET FD (KET:INH): 2
[8]; [35]
  INH FD (FLC:INH): 1
[8]; [36]
  INH FD (ITR:INH): 4
[8]; [37]
  INH FD (KET:INH): 4
[9]; [26]
  FICI (FLC:INH): 1.25
[9]; [27]
  FICI (ITR:INH): 0.53
[9]; [28]
  FICI (KET:INH): 1.5
[9]; [29]
  INH MICc (FLC:INH): 64
[9]; [30]
  INH MICc (ITR:INH): 2
[9]; [31]
  INH MICc (KET:INH): 64
[9]; [32]
  FLC FD (FLC:INH): 4
[9]; [33]
  ITR FD (ITR:INH): 2
[9]; [34]
  KET FD (KET:INH): 2
[9]; [35]
  INH FD (FLC:INH): 1
[9]; [36]
  INH FD (ITR:INH): 32
[9]; [37]
  INH FD (KET:INH): 1
[10]; [26]
  FICI (FLC:INH): 2.25
[10]; [27]
  FICI (ITR:INH): 2.13
[10]; [28]
  FICI (KET:INH): 2.25
[10]; [29]
  INH MICc (FLC:INH): 32
[10]; [30]
  INH MICc (ITR:INH): 32
[10]; [31]
  INH MICc (KET:INH): 32
[10]; [32]
  FLC FD (FLC:INH): 4
[10]; [33]
  ITR FD (ITR:INH): 8
[10]; [34]
  KET FD (KET:INH): 4
[10]; [35]
  INH FD (FLC:INH): -2
[10]; [36]
  INH FD (ITR:INH): -2
[10]; [37]
  INH FD (KET:INH): -2
[11]; HEK-293T cells, read-out: IC50
  IC50: 9.09 µg/mL (≈ 22 µM)
[11]; read-out: HEK IC50
  IC50: 9.09 µg/mL (≈ 22 µM)
[12]; across eight species, read-out: Geometric mean MFC
  MFC: 83 µg/mL (≈ 201 µM)
[12]; geometric mean across eight species, read-out: GM fungal MIC
  MIC: 29.3 µg/mL (≈ 71 µM)
[12]; read-out: Geometric mean MIC
  MIC: 29.3 µg/mL (≈ 71 µM)
[13]; any of the azole drugs in any species tested
  antagonism with azole drugs: no antagonism
[13]; geometric mean MIC in combination with azoles
  GM fungal MICc: 18
[14]
  MFC: 128 µg/mL (≈ 310 µM)
  MIC: 8 µg/mL (≈ 19.4 µM)
[15]
  MFC: 64 µg/mL (≈ 155 µM)
  MIC: 16 µg/mL (≈ 38.8 µM)
[16]
  MFC: 64 µg/mL (≈ 155 µM)
  MIC: 32 µg/mL (≈ 77.6 µM)
[17]
  MFC: > 128 µg/mL
  MIC: > 128 µg/mL
[18]
  MFC: > 128 µg/mL
  MIC: 128 µg/mL (≈ 310 µM)
[19]
  MFC: > 128 µg/mL
  MIC: 16 µg/mL (≈ 38.8 µM)
